Measurements as given in patent publication US9675606B2, “2-amino-3-(imidazol-2-yl)-pyridin-4-one derivatives and their use as VEGF receptor kinase inhibitors” (SANOFI, priority 2011, dated 2017).
Like-named read-outs stand apart in the source and are kept apart here.

Experiments:
VEGFR-3 [1] = target: T1, VEGFR-3 (Homo sapiens, UniProt P35916); assay: Effect of compounds on VEGFR-3 auto-phosphorylation in HEK cells (ELISA); assay type: cell-based; conditions: autophosphorylation of VEGFR-3-Flag overexpressed in HEK293T cells, 1 h incubation with compound
T1 construct: expressed in transfected cells; host or cells: HEK293T cells, transient transfection with Fugene-6
T1 sequence (P35916 25-1363, species assumed): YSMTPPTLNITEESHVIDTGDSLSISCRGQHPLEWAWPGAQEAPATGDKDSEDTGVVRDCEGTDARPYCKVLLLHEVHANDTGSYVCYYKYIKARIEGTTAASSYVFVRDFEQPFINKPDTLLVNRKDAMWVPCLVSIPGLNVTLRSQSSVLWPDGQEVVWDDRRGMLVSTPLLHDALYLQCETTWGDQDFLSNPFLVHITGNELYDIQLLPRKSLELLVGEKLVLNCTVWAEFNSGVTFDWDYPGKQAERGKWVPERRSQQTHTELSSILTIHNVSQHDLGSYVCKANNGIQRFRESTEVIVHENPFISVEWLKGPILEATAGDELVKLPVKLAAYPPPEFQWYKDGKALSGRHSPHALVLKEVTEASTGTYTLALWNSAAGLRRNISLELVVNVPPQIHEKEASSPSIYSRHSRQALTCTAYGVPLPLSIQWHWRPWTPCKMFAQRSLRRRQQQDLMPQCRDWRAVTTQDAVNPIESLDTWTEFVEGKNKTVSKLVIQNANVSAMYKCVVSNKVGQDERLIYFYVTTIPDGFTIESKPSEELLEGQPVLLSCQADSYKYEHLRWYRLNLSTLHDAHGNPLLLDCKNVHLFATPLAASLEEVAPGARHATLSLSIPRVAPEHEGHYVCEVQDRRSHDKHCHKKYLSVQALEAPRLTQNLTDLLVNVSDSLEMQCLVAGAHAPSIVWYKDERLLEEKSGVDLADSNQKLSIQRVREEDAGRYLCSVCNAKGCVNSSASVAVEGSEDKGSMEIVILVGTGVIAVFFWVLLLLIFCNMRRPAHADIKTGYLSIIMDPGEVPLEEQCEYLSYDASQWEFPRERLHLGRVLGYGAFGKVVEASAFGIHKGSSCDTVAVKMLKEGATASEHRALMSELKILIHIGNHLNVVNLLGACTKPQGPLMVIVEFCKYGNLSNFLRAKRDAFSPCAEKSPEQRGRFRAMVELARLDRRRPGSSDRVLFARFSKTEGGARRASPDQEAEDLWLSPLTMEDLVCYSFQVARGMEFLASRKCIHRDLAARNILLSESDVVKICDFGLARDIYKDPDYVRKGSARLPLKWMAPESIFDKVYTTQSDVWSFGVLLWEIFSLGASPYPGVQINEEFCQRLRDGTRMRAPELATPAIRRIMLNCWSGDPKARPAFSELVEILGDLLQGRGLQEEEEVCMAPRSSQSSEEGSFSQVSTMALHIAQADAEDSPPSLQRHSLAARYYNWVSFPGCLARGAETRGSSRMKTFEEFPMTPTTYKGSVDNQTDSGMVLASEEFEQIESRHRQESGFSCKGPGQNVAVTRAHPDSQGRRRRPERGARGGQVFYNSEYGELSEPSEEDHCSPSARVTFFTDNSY
Description: Effect of Compounds on VEGFR-3 Auto-Phosphorylation in HEK Cells
The effects of compounds in blocking VEGFR-3 autophosphorylation were quatified by ELISA after Overexpression of VEGFR-3 in HEK cells. HEK293T cells were maintained in MEM supplemented with 10% foetal calf serum (FCS) and glutamine. The day before transfection, […] were seeded on 48 wells plates and transfection was done using Fugene-6 (Roche, Basel). Fugene-6 (18 μL) was preincubated for 5 min with 282 μl of optimem. Then 3 μg DNA corresponding VFGR-3-Flag was added and left at room temperature during 10 min before distributing 200 μl on HEK cells. After 24 h, the medium was removed and replaced by a new one without serum and incubated for 1 h with different concentrations (ranging from 3 to 1000 nM) of each compound. After additional 30 min incubation with Orthovanadate (0.4 mM), cells were washed with cold PBS supplemented by orthovanadate and then lysed with 300 μl of RIPA buffer. Lysates were then centrifuged during 10 min at 10000 g. Supernatants (75 μl) were distributed in duplicate on 96 well plate precoated with the anti-Flag and left during 1 hour at room temperature. After 3 washes with TBS buffer containing 0.5% tween 20, the anti-phospho-tyrosine conjugated to the HRP was added and incubated for 1 hour at room temperature. Wells were then washed 3 times with TBS buffer containing tween 20 (0.5%) and MgCl2 (2 mM). The reaction was stopped with 50 μl of H2SO4 (2 N) and the signal was read at Envision at 485 and 530.
The concentration-response curves were analyzed with internal software Biost@t-SPEED v2.0 using the 4-parameter logistic model according to Ratkovsky and Reedy (Ratkovsky D A., Reedy T J. Choosing near-linear parameters in the four parameters logistic model radioligands and related assays. Biometrics 1986 September 42(3):575-82.)

VEGFR-3 [2] = target: T1, VEGFR-3; assay: Ex vivo assay: VEGFR-3 autophosphorylation in HEK cells incubated with plasma of mice dosed p.o.; parameters: species or system male Balb/c mice; conditions: HEK293, mouse, transfected HEK cells incubated with plasma (10%), read-out: Ex vivo inhibition (%) At the time
Description: Protocol for administration of the products to the mice:
The products are prepared in a mortar with 0.5% Tween 80 and 0.6% methylcellulose qs final volume. The suspensions are administered by gavage (10 ml/kg) to male Balb/c mice 8 to 15 weeks old. Three hours or 6 hours after single oral administrations of 30 mg/kg, animals were anaesthetized with pentobarbital and blood samples (400 μL) were collected from cava vein and transferred into glass tubes containing lithium heparin. After centrifugation (1500-2000 g for 10 minutes), plasma samples were frozen at a temperature close to −20° C. until analysis.
In order to detect the ex vivo activity of the products in the plasmas, we have used the autophosphorylation assay in HEK cells described earlier. For this purpose, transfected cells were incubated with plasma (10%) instead of compounds. Results are expressed as percent of inhibition of VEGFR-3 autophosphorylation in comparison to untreated cells (maximum autophosphorylation) and to untransfected cells (background).
Results are expressed as a percentage of inhibition of VEGFR-3 auto-phosphorylation of in HEK cells, in presence of a plasma sample collected (at a time), after per os (p.o.) administration of compounds. In order to evaluate the increase of this activity for compounds of the invention, a comparison with compounds of the prior art (WO 2009/007535) and subjected to the same measurement is made in table 3.

[3] = 6 h after single oral administration of 30 mg/kg to male Balb/c mice

## CCn1c(N)c(-c2ncc[nH]2)c(=O)c2ccc(C#CC3(O)CCCC3)nc21 [Compound 14, 2-Amino-1-ethyl-7-[(1-hydroxycyclopentyl)ethynyl]-3-(1H-imidazol-2-yl)-1,8-naphthyridin-4(1H)-one]
VEGFR-3 [1]
  IC50: 0.2 µM

## CCC(O)C#Cc1ccc2c(=O)c(-c3ncc[nH]3)c(N)n(CC3CC3)c2n1 (racemic) [Compound 6, 2-Amino-1-(cyclopropylmethyl)-7-(3-hydroxypent-1-yn-1-yl)-3-(H-imidazol-2-yl)-1,8-naphthyridin-4(1H)-one]
VEGFR-3 [1]
  IC50: 0.085 µM

## CCCC(O)C#Cc1ccc2c(=O)c(-c3ncc[nH]3)c(N)n(CC)c2n1 (racemic) [Compound 24, 2-Amino-1-ethyl-7-(3-hydroxyhex-1-yn-1-yl)-3-(1H-imidazol-2-yl)-1,8-naphthyridin-4(1H)-one]
VEGFR-3 [1]
  IC50: 0.085 µM

## CCC(O)C#Cc1ccc2c(=O)c(-c3ncc[nH]3)c(N)n(CCCOC)c2n1 (racemic) [Compound 11, 2-Amino-7-(3-hydroxypent-1-yn-1-yl)-3-(1H-imidazol-2-yl)-1-(3-methoxypropyl)-1,8-naphthyridin-4(1H)-one]
VEGFR-3 [1]
  IC50: 0.334 µM

## CCn1c(N)c(-c2ncc[nH]2)c(=O)c2ccc(C#CC(O)(c3ccccc3)C(F)(F)F)nc21 (racemic) [Compound 19, 2-Amino-1-ethyl-3-(1H-imidazol-2-yl)-7-(4,4,4-trifluoro-3-hydroxy-3-phenylbut-1-yn-1-yl)-1,8-naphthyridin-4(1H)-one]
VEGFR-3 [1]
  IC50: 0.014 µM

## CCCn1c(N)c(-c2ncc[nH]2)c(=O)c2ccc(C#C[C@@](C)(O)COC)nc21 [Compound 2, 2-Amino-1-propyl-7-((3R)-3-hydroxy-4-methoxy-3-methyl-but-1-ynyl)-3-(1H-imidazol-2-yl)-1H-[1,8]naphthyridin-4-one]
VEGFR-3 [1]
  IC50: 0.018 µM

## CCC(O)C#Cc1ccc2c(=O)c(-c3ncc[nH]3)c(N)n(CCOC)c2n1 (racemic) [Compound 12, 2-Amino-7-(3-hydroxypent-1-yn-1-yl)-3-(1H-imidazol-2-yl)-1-(2-methoxyethyl)-1,8-naphthyridin-4(1H)-one]
VEGFR-3 [1]
  IC50: 0.166 µM

## CCn1c(N)c(-c2ncc[nH]2)c(=O)c2ccc(-c3ccc(O)c(Cl)c3)nc21 [Compound 8, 2-Amino-7-(3-chloro-4-hydroxyphenyl)-1-ethyl-3-(1H-imidazol-2-yl)-1,8-naphthyridin-4(1H)-one]
VEGFR-3 [1]
  IC50: 0.073 µM

## CCn1c(N)c(-c2ncc[nH]2)c(=O)c2ccc(C#CC(C)(O)CC)nc21 (racemic) [Compound 16, 2-Amino-1-ethyl-7-(3-hydroxy-3-methylpent-1-yn-1-yl)-3-(1H-imidazol-2-yl)-1,8-naphthyridin-4(1H)-one]
VEGFR-3 [1]
  IC50: 0.119 µM
VEGFR-3 [2]; 3 h after single oral administration of 30 mg/kg to male Balb/c mice
  inhibition at 30 mg/kg: 48%

## CCn1c(N)c(-c2ncc[nH]2)c(=O)c2ccc(C#CC(C)(O)c3ccccc3F)nc21 (racemic) [Compound 9, 2-Amino-1-ethyl-7-[3-(2-fluorophenyl)-3-hydroxybut-1-yn-1-yl]-3-(1H-imidazol-2-yl)-1,8-naphthyridin-4(1H)-one]
VEGFR-3 [1]
  IC50: 0.016 µM

## CCn1c(N)c(-c2ncc[nH]2)c(=O)c2ccc(C#CC(O)C(C)C)nc21 (racemic) [Compound 25, 2-Amino-1-ethyl-7-(3-hydroxy-4-methylpent-1-yn-1-yl)-3-(1H-imidazol-2-yl)-1,8-naphthyridin-4(1H)-one]
VEGFR-3 [1]
  IC50: 0.303 µM

## CCn1c(N)c(-c2ncc[nH]2)c(=O)c2ccc(C#CC(O)c3ccccc3)nc21 (racemic) [Compound 26, 2-Amino-1-ethyl-7-(3-hydroxy-3-phenylprop-1-yn-1-yl)-3-(1H-imidazol-2-yl)-1,8-naphthyridin-4(1H)-one]
VEGFR-3 [1]
  IC50: 0.12 µM

## CCn1c(N)c(-c2ncc[nH]2)c(=O)c2ccc(C#C[C@@](C)(O)CO)nc21 [Compound 27, 2-Amino-7-((3R)3,4-dihydroxy-3-methyl-but-1-ynyl)-1-ethyl-3-(1H-imidazol-2-yl)-1,8-naphthyridin-4(1H)-one]
VEGFR-3 [1]
  IC50: 0.047 µM

## CCn1c(N)c(-c2ncc[nH]2)c(=O)c2ccc(C#CC3(O)CCC3)nc21 [Compound 13, 2-Amino-1-ethyl-7-[(1-hydroxycyclobutyl)ethynyl]-3-(1H-imidazol-2-yl)-1,8-naphthyridin-4(1H)-one]
VEGFR-3 [1]
  IC50: 0.041 µM
VEGFR-3 [2]; [3]
  inhibition at 30 mg/kg: 23%

## CCn1c(N)c(-c2ncc[nH]2)c(=O)c2ccc(C#CC(C)(C)O)nc21 [Compound 15, 2-Amino-1-ethyl-7-(3-hydroxy-3-methylbut-1-yn-1-yl)-3-(1H-imidazol-2-yl)-1,8-naphthyridin-4(1H)-one]
VEGFR-3 [1]
  IC50: 0.027 µM

## CCn1c(N)c(-c2ncc[nH]2)c(=O)c2ccc(C#CC(C)(O)c3ccccc3)nc21 (racemic) [Compound 17, 2-Amino-1-ethyl-7-(3-hydroxy-3-phenylbut-1-yn-1-yl)-3-(1H-imidazol-2-yl)-1,8-naphthyridin-4(1H)-one]
VEGFR-3 [1]
  IC50: 0.013 µM
VEGFR-3 [2]; [3]
  inhibition at 30 mg/kg: 37%

## CCn1c(N)c(-c2ncc[nH]2)c(=O)c2ccc(C#CC(C)O)nc21 (racemic) [Compound 22, 2-Amino-1-ethyl-7-(3-hydroxybut-1-yn-1-yl)-3-(1H-imidazol-2-yl)-1,8-naphthyridin-4(1H)-one]
VEGFR-3 [1]
  IC50: 0.038 µM
VEGFR-3 [2]; [3]
  inhibition at 30 mg/kg: 26%

## CCn1c(N)c(-c2nc(C)c[nH]2)c(=O)c2ccc(C#C[C@@](C)(O)COC)nc21 [Compound 5, 2-Amino-1-ethyl-7-[(3R)-3-hydroxy-4-methoxy-3-methylbut-1-yn-1-yl]-3-(4-methyl-1H-imidazol-2-yl)-1,8-naphthyridin-4(1H)-one]
VEGFR-3 [1]
  IC50: 0.045 µM
VEGFR-3 [2]; [3]
  inhibition at 30 mg/kg: 86%

## CCC(O)C#Cc1ccc2c(=O)c(-c3ncc[nH]3)c(N)n(C3CCCC3)c2n1 (racemic) [Compound 10, 2-Amino-1-cyclopentyl-7-(3-hydroxypent-1-yn-1-yl)-3-(1H-imidazol-2-yl)-1,8-naphthyridin-4(1H)-one]
VEGFR-3 [1]
  IC50: 0.037 µM

## CCn1c(N)c(-c2ncc[nH]2)c(=O)c2ccc(C#CC(C)(O)c3cccc(F)c3)nc21 (racemic) [Compound 18, 2-Amino-1-ethyl-7-[3-(3-fluorophenyl)-3-hydroxybut-1-yn-1-yl]-3-(1H-imidazol-2-yl)-1,8-naphthyridin-4(1H)-one]
VEGFR-3 [1]
  IC50: 0.036 µM

## CCn1c(N)c(-c2ncc[nH]2)c(=O)c2ccc(C#C[C@](C)(O)CO)nc21 [Compound 28, 2-Amino-7-((3S)3,4-dihydroxy-3-methyl-but-1-ynyl)-1-ethyl-3-(1H-imidazol-2-yl)-1,8-naphthyridin-4(1H)-one]
VEGFR-3 [1]
  IC50: 0.153 µM

## CCn1c(N)c(-c2ncc[nH]2)c(=O)c2ccc(C#C[C@@](C)(O)COC)cc21 [Compound 7, 2-Amino-1-ethyl-7-[(3R)-3-hydroxy-4-methoxy-3-methylbut-1-yn-1-yl]-3-(1H-imidazol-2-yl)quinolin-4(1H)-one]
VEGFR-3 [1]
  IC50: 0.019 µM

## CCn1c(N)c(-c2ncc[nH]2)c(=O)c2ccc(C#CC(C)(O)c3cccs3)nc21 (racemic) [Compound 21, 2-Amino-1-ethyl-7-[3-hydroxy-3-(thiophen-2-yl)but-1-yn-1-yl]-3-(1H-imidazol-2-yl)-1,8-naphthyridin-4(1H)-one]
VEGFR-3 [1]
  IC50: 0.024 µM

## CCn1c(N)c(-c2ncc[nH]2)c(=O)c2ccc(C#C[C@](C)(O)COC)nc21 [Compound 29, 2-Amino-1-ethyl-7-((3S)-3-hydroxy-4-methoxy-3-methyl-but-1-ynyl)-3-(1H-imidazol-2-yl)-1,8-naphthyridin-4(1H)-one]
VEGFR-3 [1]
  IC50: 0.145 µM

## CCC(O)C#Cc1ccc2c(=O)c(-c3ncc[nH]3)c(N)n(CC)c2n1 (racemic) [Compound 23, 2-Amino-1-ethyl-7-(3-hydroxypent-1-yn-1-yl)-3-(1H-imidazol-2-yl)-1,8-naphthyridin-4(1H)-one]
VEGFR-3 [1]
  IC50: 0.019 µM
